# Tests used:
# [1] = In vitro bioconversion study (blood), mini-pig; assay type: in vitro ADME; details: prodrug 2.5 μg/mL, 37° C.
# Protocol: (§2) The in vitro bioconversion of the L-dopa phosphate prodrugs to L-dopa and the carbidopa phosphate prodrugs to carbidopa was evaluated in several studies. In brief, the L-dopa and carbidopa phosphate prodrugs (2.5 μg/mL) were incubated with tissue homogenate or fractions from rats, mini-pigs, or human, including blood, skin homogenate (3 mg/mL), liver microsomes (1 mg/mL), liver S9 fraction (1 mg/mL), kidney S9 fraction (1 mg/mL), and intestine S9 fractions (1 mg/mL). The reaction mixtures were incubated at 37° C. for 5 to 6 time points within 1 to 2 hours. At the end of each time point, the reaction mixtures were quenched by 2 to 3 volumes of 5% trichloroacetic acid in water. After quenching, the mixtures were centrifuged at 3000 rpm for 20 minutes, and the supernatants were analyzed by LC-MS for quantitation of the prodrug, L-dopa or carbidopa. The in vitro bioconversion was assessed by monitoring both time-dependent depletion of the prodrug and the formation of the corresponding L-dopa or carbidopa.
# [2] = 1-Day stability study of prodrugs in aqueous solution; assay type: physicochemical; details: aqueous solution 80 μg/mL, ambient storage, pH 7.0
# Protocol: The L-dopa phosphate prodrugs and the carbidopa phosphate prodrugs were evaluated in a stability study.
# [3] = 1-Day stability study, diphosphate combination solution; assay type: physicochemical; details: combination solution: L-dopa 3′,4′-diphosphate 35 mg/mL + carbidopa 3′,4′-diphosphate 8.7 mg/mL, pH 6.2, room temperature, nitrogen purged
# Protocol: In addition, a solution combining the diphosphates of each compound (L-dopa 3′, 4′-diphosphate at 35 mg/mL and carbidopa 3′, 4′-diphosphate at 8.7 mg/mL) was monitored over one day at room temperature. This sample was purged with nitrogen to remove oxygen.
# [4] = In vitro bioconversion study, kidney S9 fraction, rat; assay type: in vitro ADME; details: rat kidney S9 fraction 1 mg/mL, prodrug 2.5 μg/mL, 37° C.
# Protocol: as §2
# [5] = In vitro bioconversion study (skin homogenates), rat; details: rat skin homogenate 3 mg/mL, prodrug 2.5 μg/mL, 37° C.
# [6] = In vitro bioconversion study (intestinal S9 fractions), human; assay type: in vitro ADME; details: human intestinal S9 fraction 1 mg/mL, prodrug 2.5 μg/mL, 37° C.
# Description: (§1) The t1/2 appeared to be shorter in human intestinal S9 than in rat intestinal S9.
# [7] = In vitro bioconversion study (skin homogenates), mini-pig; details: mini-pig skin homogenate 3 mg/mL, prodrug 2.5 μg/mL, 37° C.
# [8] = In vitro bioconversion study, liver S9 fraction, human; assay type: in vitro ADME; details: human liver S9 fraction 1 mg/mL, prodrug 2.5 μg/mL, 37° C.
# Protocol: as §2
# [9] = In vitro bioconversion study (blood), human; assay type: in vitro ADME; details: prodrug 2.5 μg/mL, 37° C.
# Protocol: as §2
# [10] = test system: rats; experiment: Local tolerability in rats, single SC bolus dose; assay type: in vivo; details: concentrations up to 125 mg/mL
# [11] = In vitro bioconversion study (skin homogenates), human; details: human skin homogenate 3 mg/mL, prodrug 2.5 μg/mL, 37° C.
# [12] = In vitro bioconversion study, kidney S9 fraction, human; assay type: in vitro ADME; details: human kidney S9 fraction 1 mg/mL, prodrug 2.5 μg/mL, 37° C.
# Protocol: as §2
# [13] = In vitro bioconversion study (intestinal S9 fractions), rat; assay type: in vitro ADME; details: rat intestinal S9 fraction 1 mg/mL, prodrug 2.5 μg/mL, 37° C.
# Description: as §1
# [14] = Phosphate prodrug solubility study in water; assay type: physicochemical; details: water, ambient, visual assessment, pH 5.5, Amorphous
# Protocol: The L-dopa phosphate prodrugs and the carbidopa phosphate prodrugs were evaluated in a solubility study. The solubility values of the phosphate prodrugs in water under ambient conditions were determined by visual assessment. Table 13-A reports the results of the study, including the measured values for L-dopa and carbidopa.
# [15] = In vitro bioconversion study (blood), rat; details: prodrug 2.5 μg/mL, 37° C.
# Protocol: The in vitro bioconversion of the L-dopa phosphate prodrugs to L-dopa and the carbidopa phosphate prodrugs to carbidopa was evaluated in several studies. […] The reaction mixtures were incubated at 37° C. for 5 to 6 time points within 1 to 2 hours. At the end of each time point, the reaction mixtures were quenched by 2 to 3 volumes of 5% trichloroacetic acid in water. After quenching, the mixtures were centrifuged at 3000 rpm for 20 minutes, and the supernatants were analyzed by LC-MS for quantitation of the prodrug, L-dopa or carbidopa. The in vitro bioconversion was assessed by monitoring both time-dependent depletion of the prodrug and the formation of the corresponding L-dopa or carbidopa.
# [16] = In vitro bioconversion study, liver S9 fraction, rat; assay type: in vitro ADME; details: rat liver S9 fraction 1 mg/mL, prodrug 2.5 μg/mL, 37° C.
# Protocol: as §2
# [17] = In vitro bioconversion study, liver S9 fraction, mini-pig; assay type: in vitro ADME; details: mini-pig liver S9 fraction 1 mg/mL, prodrug 2.5 μg/mL, 37° C.
# Protocol: as §2
# [18] = In vitro bioconversion study, human liver microsomes; assay type: in vitro ADME; details: human liver microsomes 1 mg/mL, prodrug 2.5 μg/mL, 37° C.
# Protocol: as §2
# [19] = listed as diphosphate prodrug of L-dopa
smiles,measurement,setting,value
"N[C@@H](Cc1ccc(OP(=O)(O)O)c(OP(=O)(O)O)c1)C(=O)O [L-dopa 3′,4′-diphosphate]",L-Dopa or Carbidopa Formation,[1],Yes
same,T1/2,[1],2.08 h
same,% Remaining After One Day,[2],>99%
same,% Remaining After One Day,[3],>99%
same,stability and formation of L-dopa or carbidopa,[4],stable without formation of L-dopa or carbidopa observed
same,L-Dopa or Carbidopa Formation,[5],No
same,T1/2,[5],stable
same,L-Dopa or Carbidopa Formation,[6],Yes
same,T1/2,[6]; [19],rapidly dephosphorylated
same,L-Dopa or Carbidopa Formation,[7],No
same,T1/2,[7],stable
same,stability and formation of L-dopa or carbidopa,[8],stable without formation of L-dopa or carbidopa observed
same,L-Dopa or Carbidopa Formation,[9],Yes
same,T1/2,[9],2.3 h
same,clinical signs or microscopic findings of local intolerance,[10],no adverse clinical signs or microscopic findings indicative of local intolerance
same,L-Dopa or Carbidopa Formation,[11],No
same,T1/2,[11],stable
same,stability and formation of L-dopa or carbidopa,[12],stable without formation of L-dopa or carbidopa observed
same,L-Dopa or Carbidopa Formation,[13],Yes
same,T1/2,[13]; [19],rapidly dephosphorylated
same,Solubility,[14],>330 mg/mL
same,L-Dopa or Carbidopa Formation,[15],Yes
same,T1/2,[15],6 min
same,stability and formation of L-dopa or carbidopa,[16],stable without formation of L-dopa or carbidopa observed
same,stability and formation of L-dopa or carbidopa,[17],stable without formation of L-dopa or carbidopa observed
same,stability and formation of L-dopa or carbidopa,[18],stable without formation of L-dopa or carbidopa observed
